Reference: patent US11274114B2, “Modified mito-metformin compounds and methods of synthesis and use thereof” (THE MEDICAL COLLEGE OF WISCONSIN, INC., priority 2014, dated 2022)
Several values for one entry are separate records, joined by “and”; a condition that tells them apart may be missing. Equal values may be shown once.

Legend:
[1] = tested on: MiaPaCa-2 cells; experiment: Clonogenic assay (colony formation, survival fraction); format: cell-based, human; settings: for colony formation: 24 h; for IC50: Homo sapiens, MIA PaCa-2, 24 h, read-out: IC50, colony formation / survival fraction
Protocol: Clonogenic assay. […] The plates were kept within the incubator and media changed every 3-4 days until the control cells formed sufficiently large clones. The cell survival fractions were calculated as previously described.

[2] = tested on: MiaPaCa-2 cells; experiment: IncuCyte real-time cell proliferation (cell confluence); format: cell-based, human
Protocol: Cell proliferation was measured using a label-free, non-invasive cellular confluence assay employing the IncuCyte™ Live-Cell Imaging Analyzer (Essen Bioscience). This system provides real-time cellular confluence data based on segmentation of high definition phase contrast images. MiaPaCa2 (1,000 cells/well) were seeded overnight on a 96-well plate, placed in an XL-3 incubation chamber maintained at 37 C. and cells photographed and confluence calculated every 2 hr by IncuCyte software. MiaPaCa2 cells were treated with Met (1 and 2 mM) or Mito-Met-C10 (1-2 μM).
(§1) IncuCyte Analyzer-real time measurement of cell proliferation. The cell proliferation was measured using a label-free, noninvasive cellular confluence assay by IncuCyte Live-Cell Imaging Systems (Essen Bioscience, Ann Arbor, Mich., USA; IncuCyte FLR). This system enables collection of live cell images at 2 h intervals over several days. The IncuCyte Analyzer provides real-time cellular confluence data based on segmentation of high-definition phase-contrast images. The cell proliferation is expressed as an increase in percentage of cell confluence.

[3] = tested on: MiaPaCa-2 cells; experiment: Oxygen consumption rate in intact cells, Seahorse XF96; format: cell-based, human; settings: for concentration that inhibited OCR: intact MiaPaCa-2, after 24 h treatment and washout; for OCR inhibition: immediately after addition
Protocol: (§2) Respiratory enzyme activity in intact and permeabilized cells. The mitochondrial function in intact and permeabilized pancreatic cancer cells was measured using a Seahorse XF96 Extracellular Flux Analyzer (Seahorse Bioscience, North Billerica, Mass., USA). Unless specified otherwise, assays in intact cells were performed as previously described. Measurement of mitochondrial respiratory complexes in permeabilized cells was performed according to the manufacturer's instructions (Seahorse Bioscience). Briefly, intact cells were permeabilized using 1 nM Plasma Membrane Permeabilizer (PMP, Seahorse Bioscience) immediately before oxygen consumption rate (OCR) measurement by XF96. The oxygen consumption derived from mitochondrial complex I or complex II activity was measured by providing different substrates to mitochondria, e.g., pyruvate/malate for complex I and succinate for complex II activity. Rotenone, malonate and antimycin A were used as specific inhibitors of mitochondrial complex I, II and III activities, respectively.
Effects of Met and Mito-Met analogs on mitochondrial bioenergetics in MiaPaCa-2 cells. The oxygen consumption rate (OCR) and the extracellular acidification rate (ECAR) were measured as a readout of mitochondrial function and glycolysis using a Seahorse Bioscience XF96 extracellular flux analyzer. We compared the immediate OCR changes in response to different concentrations (e.g., IC50 or higher values determined by clonogenic assay) of Met, Mito-Met2, Mito-Met6, Mito-Met10, and phenformin (FIG. 13A).

[4] = tested on: MiaPaCa-2 cells; experiment: Radiosensitization (X-radiation, clonogenic survival); format: cell-based, human; settings: for PDAC radiosensitivity: 24 h pretreatment before X-radiation
Protocol: MiaPaCa2 cells (1000 cells/well) were cultured in quadruplicate overnight in 96-well plates and changed to fresh medium.
(§3) Radiation experiments. […] The cells were then treated with X-radiation at a dose of 0, 2, 4, and 6 Gy. The control cells were treated with the same concentration of vehicle (0.1% DMSO) where appropriate. After irradiation, cells were suspended and seeded at various densities (100-8,000 cells per well) in 6-well plates for clonogenic assay as described above. The plates were kept within the incubator and media changed every 3-4 days for 2 weeks. Wells with 10-50 sufficiently large clones were chosen for calculating the cell survival fractions.

[5] = biological target: T1, mitochondrial complex I (Homo sapiens, UniProt O75251+O75306+P03886); experiment: Complex I oxygen consumption (pyruvate/malate-driven OCR) in permeabilized cells, Seahorse XF96; format: cell-based; parameters: IC50, complex I oxygen consumption; other: permeabilized MiaPaCa-2, added acutely; settings: permeabilized MiaPaCa-2, added acutely
Protocol: as §2
(§4) The oxygen consumption rate was measured using the permeabilized MiaPaCa-2 cells in MAS buffer supplemented with pyruvate. The use of permeabilized cells avoids differences in cellular uptake of compounds. […] We tested the effect of pretreating cells with Mito-Met10 or Met using the permeabilized model. […]
Target sequence in this assay (P03886 whole entry): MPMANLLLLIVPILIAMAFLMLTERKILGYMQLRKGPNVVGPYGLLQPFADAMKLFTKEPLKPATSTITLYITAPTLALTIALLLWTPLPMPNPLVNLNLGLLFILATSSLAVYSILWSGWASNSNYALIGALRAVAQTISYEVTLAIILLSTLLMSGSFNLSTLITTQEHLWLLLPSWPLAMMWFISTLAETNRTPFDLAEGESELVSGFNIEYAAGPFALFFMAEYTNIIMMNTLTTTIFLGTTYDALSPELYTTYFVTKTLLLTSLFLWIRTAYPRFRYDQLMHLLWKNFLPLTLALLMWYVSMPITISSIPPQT
Target sequence in this assay (O75251 39-213): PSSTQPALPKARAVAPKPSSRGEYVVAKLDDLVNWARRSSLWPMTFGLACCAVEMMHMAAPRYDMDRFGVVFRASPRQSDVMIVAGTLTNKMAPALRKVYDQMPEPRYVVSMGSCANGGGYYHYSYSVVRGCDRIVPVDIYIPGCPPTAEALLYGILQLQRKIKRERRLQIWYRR
Target sequence in this assay (O75306 34-463): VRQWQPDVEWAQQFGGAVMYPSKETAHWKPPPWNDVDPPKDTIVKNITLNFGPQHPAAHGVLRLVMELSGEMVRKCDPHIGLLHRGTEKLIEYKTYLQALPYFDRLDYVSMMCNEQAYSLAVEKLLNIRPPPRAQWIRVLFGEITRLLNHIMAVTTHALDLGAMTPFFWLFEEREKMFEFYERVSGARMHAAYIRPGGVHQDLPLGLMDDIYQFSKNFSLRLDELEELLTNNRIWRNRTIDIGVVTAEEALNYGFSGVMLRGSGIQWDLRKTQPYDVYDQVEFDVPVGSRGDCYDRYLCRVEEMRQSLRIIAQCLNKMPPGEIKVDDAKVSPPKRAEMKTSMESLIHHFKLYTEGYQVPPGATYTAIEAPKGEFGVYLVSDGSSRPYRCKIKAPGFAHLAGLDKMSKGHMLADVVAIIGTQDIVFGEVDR

[6] = tested on: MCF-10A cells; experiment: IncuCyte cell proliferation in nonmalignant cells; format: cell-based; settings: MCF-10A breast epithelial cells
Protocol: as §1

[7] = tested on: HaCaT cells; experiment: IncuCyte cell proliferation in nonmalignant cells; format: cell-based; settings: HaCaT keratinocytes
Protocol: as §1

[8] = tested on: AMPK; experiment: AMPK activation immunoblot (phospho-Thr-172 / total AMPK); format: cell-based, human; settings: MiaPaCa-2
Protocol: In this example, the inventors have shown that the mito-met compounds of the present invention cause an increased AMPK activation in cancer cells. In preliminary experiments (FIG. 4), human MiaPaCa2 and murine FC1199 PDAC cells treated 30 min with 1 μM mito-met (MM), 1 mM Met, or the oligomycin positive control were lysed, and proteins size-separated on SDS-PAGE, transferred to PVDF, and probed with an antibody to phosphorylated AMPK Thr-172.
Immunoblotting. MiaPaCa-2 PDAC cells (1×10^6) were plated to 80% confluency in 60 mm dishes and then serum-starved for 5 hours. […] Cells were stimulated with oligomycin as a positive control. After stimulation, cells were washed twice in cold PBS and lysed using a modified RIPA buffer. Lysates were normalized for protein concentration, size separated using reducing SDS-PAGE, electro-transferred to PVDF membranes (Millipore) and then probed using primary and horseradish peroxidase-conjugated secondary antibodies. Antibodies against total or phosphorylated 5′ AMP-activated protein kinase (AMPK) were purchased from Cell Signaling Technology (Danvers, Mass.) and used at the manufacturer's recommended dilutions. Proteins were visualized by chemiluminescence with auto-exposure and quantified by densitometric analysis using the FluorChem HD2 from Cell Biosciences (Santa Clara, Calif.).

[9] = tested on: MiaPaCa-2 cells
Protocol: Cells were grown on 10 cm dishes and treated with the compounds for 24 h in full media.
Next we investigated the relative uptake of different Mito-Met analogs (Mito-Met2, Mito-Met6, and Mito-Met10) and phenformin in MiaPaCa-2 cells (FIG. 12D). Cells were treated with respective Mito-Met analog (1 μM) for 1 h. Cells were lysed after washing and analyzed for Mito-Met analog by LC-MS.

[10] = biological target: T1, mitochondrial complex I; experiment: Complex I oxygen consumption (pyruvate/malate-driven OCR) in permeabilized cells, Seahorse XF96; format: cell-based; settings: 24 h treatment, then permeabilized
Protocol: as §2, §4
Target sequence in this assay (O75251 39-213): as the sequence (O75251 39-213) above
Target sequence in this assay (O75306 34-463): as the sequence (O75306 34-463) above
Target sequence in this assay (P03886 whole entry): as the sequence (P03886 whole entry) above

[11] = mouse
Protocol: In an initial proof-of-concept experiment, syngeneic KPC cells expressing Firefly luciferase (FC1242-luc) were orthotopically implanted to the pancreas of C57BL/6 mice and tumor growth monitored using bioluminescence imaging (FIG. 15F). Mice orthotopically autografted with FC1242-luc cells were treated daily with 1 mg/kg or 150 mg/kg Met, or 1 mg/kg Mito-Met. […] Serum from these animals was collected, and hepatic and kidney toxicity tested using standard AST, ALT, AP, and BUN assays, respectively.

[12] = tested on: MiaPaCa-2 cell 3D spheroids; experiment: Three-dimensional spheroid growth in Matrigel; format: cell-based, human; settings: 0.5 μM, compared to Met 10,000 μM
Protocol: Three-dimensional spheroid cell cultures of PDAC. MiaPaCa-2 cells (5,000) were seeded in 96-well plates containing Matrigel (Corning), used as scaffold. This typical 3D-cell culture system allows spheroids to form within the matrix. […] At days 3, 7, and 14 the wells were observed by bright-field microscopy and images acquired on a Nikon Eclipse Ti inverted microscope (Nikon instrument Inc., NY, USA). Spheroid-forming cells were counted using the Nikon NIS Elements imaging software (Nikon). Data are expressed as mean and SD of number of spheroids.

[13] = tested on: MCF-10A cells; experiment: Radiosensitization (X-radiation, clonogenic survival) in normal cells; format: cell-based; settings: 1 μM pretreatment
Protocol: as §3

[14] = tested on: MiaPaCa-2 cells; experiment: Sytox Green cytotoxicity assay; format: cell-based; settings: MiaPaCa-2, 24 h, 100 μM
Protocol: Cytotoxicity assay. To determine the cytotoxicity of Mito-Met analogs and other TPP^+-conjugated to a long chain aliphatic hydrocarbon, we used the Sytox assay as described previously. MiaPaCa-2 cells were treated for 24 h, and dead cells were monitored in the presence of 200 nM Sytox Green (Invitrogen). The Sytox method labels the nuclei of dead cells yielding green fluorescence. Fluorescence intensities from the dead cells in 96-well plate were acquired in real time every 15 min after 4 h using a plate reader (BMG Labtech, Inc.) equipped with an atmosphere controller set at 37° C. and 5% CO2:95% air, using a fluorescence detection with 485 nm (excitation) and 535 nm (emission). To measure the total cell number, all of the samples in each treatment group were permeabilized by adding Triton X 100 (0.065%) in the presence of Sytox Green for 3 h, and maximal fluorescence intensities were taken as 100%. Data are represented as a percentage of dead cells after normalization to total cell number for each group.

[15] = tested on: FC1242-luc autografts; experiment: Orthotopic syngeneic FC1242-luc tumor growth, bioluminescence imaging and calipers; format: in vivo, C57BL/6 mice; settings: for in vivo tumor growth relative to Met: 1 mg/kg daily, intraperitoneal
Excerpt: In vivo studies and bioluminescence imaging.

[16] = Tissue accumulation in FC1242-luc orthotopic mice; format: in vivo; settings: 1 mg/kg daily for 2 weeks, tissues harvested 3 days after last treatment
Protocol: FIG. 19. Tissue accumulation of Mito-Met in in vivo FC1242-luc orthotopic mouse model. FC1242-luc orthotopic mice treated with Mito-Met10 (1 mg/kg) daily for 2 weeks. Tissue harvesting and extractions were performed 3 days after the last treatment. Quantitative data on concentrations of Mito-Met after normalization to tissue wet weight are represented as mean±SD, n=5.

[17] = intact MiaPaCa-2, immediately after addition

CN(C)C(=N)N=C(N)N [Metformin]
colony formation ([1]; 3 mM): Almost no colony formation | IC50 [1]: 1300 µM | inhibition at 1000 µM ([2]; Homo sapiens, MIA PaCa-2, 1,000 μM, read-out: inhibition of cell growth): 80% | concentration that dose-dependently decreased oxygen consumption [3, 17]: 1 to 10 mM | PDAC radiosensitivity ([4]; 1 mM): increased radio-sensitization | PDAC radiosensitivity ([4]; 1 mM, listed as Met): increased radiosensitization | concentration that inhibited OCR [5]: 3,000 μM | cell proliferation (confluence) of nonmalignant cells [6]: not significantly affected | cell proliferation (confluence) of nonmalignant cells [7]: not significantly affected

N=C(N)NC(=N)NCC[P+](c1ccccc1)(c1ccccc1)c1ccccc1.[Br-] [Mito-Met2]
concentration that inhibited OCR [3]: 25 µM

N=C(N)NC(=N)NCCCCCCCCCC[P+](c1ccccc1)(c1ccccc1)c1ccccc1.[Br-] [Mito-Met10]
AMPK activation, fold more potent / lower concentration than metformin [8]: ~1,000 fold | difference in intracellular uptake and retention, MiaPaCa-2 and MCF-10A cells ([9]; LC-MS (FIG. 14C)): four-fold | cellular uptake, fold higher than phenformin ([9]; MiaPaCa-2, 1 μM, 1 h): ~100 fold | colony formation ([1]; 3 μM): Almost no colony formation | IC50 [1]: 1.1 µM | fold more effective than metformin in inhibiting MiaPaCa-2 cell proliferation ([1]; clonogenic, 24 h treatment (FIG. 5)): ~1,000 fold | concentration giving significant decrease in OCR (complex I inhibition) [10]: 0.75 µM | toxicity in vivo (hepatic and kidney) [11]: neither Met nor the mitochondria-targeted analog Mito-Met elicited toxicity in vivo | spheroid growth [12]: potently inhibited | fold more effective than Met in inhibiting PDAC proliferation [2]: ~1,000 fold and > 1,000 fold | inhibition at 0.2 µM ([2]; Homo sapiens, MIA PaCa-2, 0.2 μM, read-out: inhibition of cell growth): 70% | inhibition at 1 µM ([2]; Homo sapiens, MIA PaCa-2, 1 μM, read-out: inhibition of cell growth): > 90% | IC50 ([2]; Homo sapiens, MIA PaCa-2, MiaPaCa-2, read-out: IC50 (FIG. 12B, cell confluence)): 0.84 µM | radiosensitivity in normal cells [13]: no radiosensitivity was observed | OCR inhibition ([3]; 1 μM): did not inhibit OCR | concentration that inhibited OCR [3]: 1 µM | OCR inhibition ([3]; ≈10 μM): slight inhibition | fold lower concentration than Met for enhancement of radiation sensitivity ([4]; 1 μM versus Met 1 mM): 1,000 fold | PDAC radiosensitivity ([4]; 1 μM): as effective as 1 mM Met | cell death (Sytox Green) [14]: no detectable cell death | concentration that inhibited OCR [5]: 10 µM | cell proliferation (confluence) of nonmalignant cells [6]: not significantly affected | cell proliferation (confluence) of nonmalignant cells [7]: not significantly affected | in vivo tumor growth relative to Met [15]: considerably more potent than Met | in vivo tumor growth relative to Met ([15]; listed as Mito-Met): considerably more effective than Met | therapeutic index, fold greater than Met ([15]; in vivo experiments): ~1,000 fold | tissue accumulation [16]: increased accumulation of this compound in liver, kidney, spleen, and tumor

COC1=C(OC)C(=O)C(CCCCCCCCCC[P+](c2ccccc2)(c2ccccc2)c2ccccc2)=C(C)C1=O [Mito-Q]
cell death (Sytox Green) [14]: considerably more cytotoxic

CC1(C)CC(OCCCCC[P+](c2ccccc2)(c2ccccc2)c2ccccc2)CC(C)(C)N1[O].[Br-] [Mito-Tempol]
cell death (Sytox Green) [14]: considerably more cytotoxic

[H]/N=C(/N)N/C(=N/[H])NCCc1ccccc1 [Phenformin, reference compound]
concentration inhibiting OCR to the same extent as Met [3, 17]: ten-fold lower concentration
